The source of these data is the supplement of paper PMC12137928.

The test system of the test is HCT116. The conditions noted are these: 72 h. A digest of the protocol:
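In 1536-well plates, 250 HCT116 cells per well were seeded and left for 5 h to attach. Luminescence from CellTiter-Glo was set against vehicle (0%) and positive control (-100%), and pattern correction was applied. IC50 and maximal efficacy come from four-parameter Hill fitting.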

Where a name gives a salt, the structure may show the parent alone. Bounds are passed on as bounds.

For the compound `CC1(C)O[C@@H]2C[C@H]3[C@@H]4CCC5=CC(=O)C=C[C@]5(C)[C@@]4(F)[C@@H](O)C[C@]3(C)[C@]2(C(=O)CO)O1` [Triamcinolone acetonide], the IC50 cell viability (ICRF193 0 nM) is > 45.8 µM and the IC50 cell viability (ICRF193 200 nM) is > 45.8 µM.

For the compound `CN1C[C@H](C(=O)N[C@]2(C)O[C@@]3(O)[C@@H]4CCCN4C(=O)[C@H](Cc4ccccc4)N3C2=O)C[C@@H]2c3cccc4[nH]cc(c34)C[C@H]21` [Dihydroergotamine], the IC50 cell viability is > 45.8 µM (ICRF193 0 nM) and > 45.8 µM (ICRF193 200 nM).

Turning to `CC1CCCCN1CCCOC(=O)c1ccccc1` (stereo not given) [Piperocaine hydrochloride], the IC50 cell viability (ICRF193 0 nM) is > 45.8 µM and the IC50 cell viability (ICRF193 200 nM) was > 45.8 µM.

In the case of `C#C[C@]1(O)CC[C@H]2[C@@H]3CCC4=CC(=NO)CC[C@@H]4[C@H]3CC[C@@]21CC` [Norgestimate metabolite Norelgestromin], the IC50 cell viability by setting is: (ICRF193 0 nM) > 45.8 µM; (ICRF193 200 nM) > 45.8 µM.

Take `CCN(Cc1ccncc1)C(=O)C(CO)c1ccccc1` (stereo not given) [Tropicamide]: the IC50 cell viability by setting is: (ICRF193 0 nM) > 45.8 µM; (ICRF193 200 nM) > 45.8 µM.

As for `CC(C)CN(C[C@@H](OP(=O)(O)O)[C@H](Cc1ccccc1)NC(=O)O[C@H]1CCOC1)S(=O)(=O)c1ccc(N)cc1` [Fosamprenavir (Calcium Salt)], the IC50 cell viability was > 45.8 µM (ICRF193 0 nM) and > 45.8 µM (ICRF193 200 nM).

With `NCCC[C@H](NC(=O)[C@@H]1CCCN1C(=O)[C@@H]1CSSC[C@H](N)C(=O)N[C@@H](Cc2ccc(O)cc2)C(=O)N[C@@H](Cc2ccccc2)C(=O)N[C@@H](CCC(N)=O)C(=O)N[C@@H](CC(N)=O)C(=O)N1)C(=O)NCC(N)=O` [ORNIPRESSIN], the IC50 cell viability runs as follows: (ICRF193 0 nM) > 45.8 µM; (ICRF193 200 nM) > 45.8 µM.

Take `CC[N+]1(CC)CCC(=C(c2ccccc2)c2ccccc2)C1C` (stereo not given) [Prifinium bromide]: the IC50 cell viability (ICRF193 0 nM) is > 45.8 µM and the IC50 cell viability (ICRF193 200 nM) was > 45.8 µM.

With `O=C1/C(=C2\Nc3ccc(S(=O)(=O)O)cc3C2=O)Nc2ccc(S(=O)(=O)O)cc21` [Indigo carmine], the IC50 cell viability by setting is: (ICRF193 0 nM) > 45.8 µM; (ICRF193 200 nM) > 45.8 µM.

Consider `CC(C)c1cccc(C(C)C)c1O` [Propofol], for which the IC50 cell viability was > 45.8 µM (ICRF193 0 nM) and > 45.8 µM (ICRF193 200 nM).

`COc1cc2nc(N(C)CCCNC(=O)C3CCCO3)nc(N)c2cc1OC` (stereo not given) [Alfuzosin hydrochloride]: the IC50 cell viability reads like this: (ICRF193 0 nM) > 45.8 µM; (ICRF193 200 nM) > 45.8 µM.

Take `CC1(C)[C@H](C=C(Cl)Cl)[C@H]1C(=O)OCc1c(F)c(F)cc(F)c1F` [Transfluthrin]: the IC50 cell viability was > 45.8 µM (ICRF193 0 nM) and > 45.8 µM (ICRF193 200 nM).

For `CCC1(CC)C(=O)NC(=O)N(C)C1=O` [Metharbital], the IC50 cell viability is > 45.8 µM (ICRF193 0 nM) and > 45.8 µM (ICRF193 200 nM).

Take `COCCCC/C(=N\OCCN)c1ccc(C(F)(F)F)cc1` [Fluvoxamine]: the IC50 cell viability reads like this: (ICRF193 0 nM) > 45.8 µM; (ICRF193 200 nM) > 45.8 µM.

With `O=c1[nH]c(=O)n(C2CCCO2)cc1F` (stereo not given) [Tegafur], the IC50 cell viability runs as follows: (ICRF193 0 nM) > 45.8 µM; (ICRF193 200 nM) > 45.8 µM.

As for `C=C[C@H]1CN2CC[C@H]1C[C@H]2[C@H](O)c1ccnc2ccccc12` [CINCHONIDINE], the IC50 cell viability runs as follows: (ICRF193 0 nM) > 45.8 µM; (ICRF193 200 nM) > 45.8 µM.

In the case of `Oc1ncc(N(CCCl)CCCl)c(O)n1` [Uracil mustard], the IC50 cell viability is, setting by setting: (ICRF193 0 nM) > 45.8 µM; (ICRF193 200 nM) > 45.8 µM.

For `CC1(C)S[C@@H]2[C@H](NC(=O)[C@H](C(=O)O)c3ccsc3)C(=O)N2[C@H]1C(=O)O` [Ticarcillin sodium], the IC50 cell viability runs as follows: (ICRF193 0 nM) > 45.8 µM; (ICRF193 200 nM) > 45.8 µM.

Turning to `CCCCCC1Nc2cc(C(F)(F)F)c(S(N)(=O)=O)cc2S(=O)(=O)N1` (stereo not given) [Penflutizide], the IC50 cell viability (ICRF193 0 nM) was > 45.8 µM and the IC50 cell viability (ICRF193 200 nM) is > 45.8 µM.

In the case of `CO[C@H]1/C=C/O[C@@]2(C)Oc3c(C)c(O)c4c(O)c(c(/C=N/N5CCN(C6CCCC6)CC5)c(O)c4c3C2=O)NC(=O)/C(C)=C\C=C\[C@H](C)[C@H](O)[C@@H](C)[C@@H](O)[C@@H](C)[C@H](OC(C)=O)[C@@H]1C` [Rifapentine], the IC50 cell viability runs as follows: (ICRF193 0 nM) > 45.8 µM; (ICRF193 200 nM) > 45.8 µM.

Regarding `CC1O[C@H](O[C@]2(O[C@H]3CC[C@@]4(C)C(=CC[C@H]5[C@@H]6C[C@H]7[C@H]([C@H](C)[C@H]8CC[C@H](C)CN87)[C@@]6(C)CC[C@@H]54)C3)C[C@@H](O[C@@H]3OC(CO)[C@@H](O)[C@@H](O)C3O)[C@@H](O)C(CO)O2)C(O)[C@@H](O)[C@H]1O` (stereo partly drawn) [Solanine alpha], the IC50 cell viability (ICRF193 0 nM) was > 45.8 µM and the IC50 cell viability (ICRF193 200 nM) was > 45.8 µM.

Regarding `CCCCCCCCCCCCCCCC(=O)OCCC1CCN(CCCN2c3ccccc3Sc3ccc(S(=O)(=O)N(C)C)cc32)CC1` [Pipothiazine palmitate], the IC50 cell viability (ICRF193 0 nM) was > 45.8 µM and the IC50 cell viability (ICRF193 200 nM) is > 45.8 µM.

Consider `C=C1C[C@H]2[C@@H]3CCC4=CC(=O)C=C[C@]4(C)[C@@]3(F)[C@@H](O)C[C@]2(C)[C@@]1(O)C(=O)COC(C)=O` [Fluprednidene acetate], for which the IC50 cell viability reads like this: (ICRF193 0 nM) > 45.8 µM; (ICRF193 200 nM) > 45.8 µM.

Consider `NS(=O)(=O)c1cc2c(cc1Cl)NCNS2(=O)=O` [Hydrochlorothiazide], for which the IC50 cell viability reads like this: (ICRF193 0 nM) > 45.8 µM; (ICRF193 200 nM) > 45.8 µM.

With `OCc1ccc(Cl)cc1Cl` [2,4-Dichlorobenzyl alcohol], the IC50 cell viability runs as follows: (ICRF193 0 nM) > 45.8 µM; (ICRF193 200 nM) > 45.8 µM.

Turning to `CCCCCCC(=O)O[C@H]1CC[C@H]2[C@@H]3CC[C@H]4CC(=O)C=C(C)[C@]4(C)[C@H]3CC[C@]12C` [Methenolone enanthate], the IC50 cell viability is > 45.8 µM (ICRF193 0 nM) and > 45.8 µM (ICRF193 200 nM).

For `CCCCCCCC(=O)OCC(O)CO` (stereo not given) [2,3-Dihydroxypropyl octanoate], the IC50 cell viability (ICRF193 0 nM) is > 45.8 µM and the IC50 cell viability (ICRF193 200 nM) was > 45.8 µM.

As for `C=CC=CCC1=C(C)C(OC(=O)C2C(C=C(C)C)C2(C)C)CC1=O` (stereo not given) [Pyrethrin 1], the IC50 cell viability is > 45.8 µM (ICRF193 0 nM) and > 45.8 µM (ICRF193 200 nM).

Regarding `C#C[C@]1(O)CC[C@H]2[C@@H]3CCC4=CC(=O)CC[C@@H]4[C@H]3C(=C)C[C@@]21CC` [Etonogestrel], the IC50 cell viability is > 45.8 µM (ICRF193 0 nM) and > 45.8 µM (ICRF193 200 nM).

Regarding `Cc1nc(C2CCCCC2)c(-c2ccc(S(N)(=O)=O)c(F)c2)o1` [Tilmacoxib], the IC50 cell viability runs as follows: (ICRF193 0 nM) > 45.8 µM; (ICRF193 200 nM) > 45.8 µM.

As for `CCCCOC(=O)c1ccc(O)cc1` [Butylparaben], the IC50 cell viability was > 45.8 µM (ICRF193 0 nM) and > 45.8 µM (ICRF193 200 nM).

For the compound `CC1=C(/C=C/C(C)=C/C=C/C(C)=C\C(=O)O)C(C)(C)CCC1` [Isotretinoin], the IC50 cell viability by setting is: (ICRF193 0 nM) > 45.8 µM; (ICRF193 200 nM) > 45.8 µM.

Turning to `CC12CC3CC(C)(C1)CC(N)(C3)C2` [Memantine hydrochloride], the IC50 cell viability by setting is: (ICRF193 0 nM) > 45.8 µM; (ICRF193 200 nM) > 45.8 µM.

`N[C@H](CC(=O)O)C(=O)O` [D-Aspartic acid]: the IC50 cell viability is > 45.8 µM (ICRF193 0 nM) and > 45.8 µM (ICRF193 200 nM).

With `COc1ccccc1OC(=O)Oc1ccccc1OC` [Guaiacol carbonate], the IC50 cell viability is > 45.8 µM (ICRF193 0 nM) and > 45.8 µM (ICRF193 200 nM).
